“Also recorded” adds a separate entry of the source. Where a SMILES comes first, the peptide text is derived from it. [ ]: non-standard residue; d: D form. Nle = CCCC[C@H](N)C(=O)O
What was measured:
MetAP-2 [1] = biological target: T1, MetAP-2 (Homo sapiens, UniProt P50579); test: Degradation experiments with Xenopus egg extracts; format: biochemical, Xenopus laevis
Experimental: Extracts from unfertilized Xenopus laevis eggs were prepared the day of the experiment, as described (See Murray, A. W., Methods Cell Biol., 3:581–605 (1991)). The MetAP-2-Protac-1 mixture (4 μl of 9 μM MetAP-2 plus 50 μMProtac-1) or MetAP-2 alone was added to […] of extract in addition to OVA (10 μM final), constitutively active IKK (IKK-EE, 0.4 μg), and okadaic acid (OA; 10 μM final). N-acetyl-leu-leu-norleucinal (LLnL, 50 μM final), epoxomicin (10 μM final), or DMSO vehicle were added to the indicated concentrations to inhibit degradation by the proteasome. The protease inhibitors chymostatin, pepstatin, and leupeptin ([…] final concentration) also were added to the extracts. Reactions were incubated for the indicated times at room temperature and terminated by adding 50 μl of SDS/PAGE loading buffer. Samples were evaluated by Western blotting as described above.
However, the key issues are whether Protac-1 can specifically activate MetAP-2 degradation, and whether targeted degradation can be achieved by endogenous ubiquitin/proteasome pathway components at typical intracellular concentrations. To address these questions, MetAP-2 was preincubated with Protac-1 to allow the complexes to form, and then added the mixture to Xenopus egg extract supplemented with IKK-EE (See Mercurio, F., Zhu, et al., Science,. 278:860–66. (1997)), OA, and OVA. The addition of IKK-EE and OA was intended to sustain phosphorylation of the IkBa peptide moiety of Protac-1, whereas OVA was added to prevent the further linkage of Protac-1 to MetAP-2. […] Moreover, addition of both IKK-EE and OA was required for optimal degradation of MetAP-2-Protac-1. Similarly, we have seen specific turnover of the MetAP-2-Protac-1complex, but not free MetAP-2, in three independent experiments. […] MetAP-2 turnover was very specific, in that maximal degradation required agents predicted to sustain phosphorylation of the LkBa peptide.

MetAP-2 [2] = biological target: T1, MetAP-2; details: covalent, active site His-231; cited from earlier work
SCF^β-TRCP [3] = biological target: T2, SCF^β-TRCP (Homo sapiens, UniProt Q9Y297); test: Binding assay: recruitment of MetAP-2 to SCFβ-TRCP beads; design: made in house; details: MetAP-2 (18 μM) preincubated with Protac-1 (100 μM) 45 min; beads 1 hr room temperature; vs control beads
Experimental: 293T cell pellets were lysed with 200 μl of lysis buffer (25 mMTris/Cl, pH 7.5/150 mM NaCl/0.1% Triton X-100/5 mM NaF/0.05 mM EGTA/1 mM PMSF). Pellets from cells transfected with vector, pFLAG-β-TRCP, or pFLAG-Cul-1 were vortexed for 10 sec, then incubated on ice for 15 min. After centrifugation at 13,000 rpm in an Eppendorf microfuge (Germany) for 5 min at 4° C., the supernatant was added to 20 μl of FLAG M2 beads (Sigma), which were washed with lysis buffer three times before immu-noprecipitation. […] The beads were washed once each with buffers A and B. After centrifugation at 13,000 rpm in an Eppendorf microfuge (Germany) for 1 min, half of the bead and supernatant fractions, representing bound and unbound, respectively, were evaluated by Western blotting as described above. […] SDS/PAGE loading buffer was added to terminate reactions, which were evaluated by Western blotting as described above.
Before testing the activity of Protac-1, an approach to isolate and assay SCF^β-TRCP complexes in vitro as described (See Tan, P., et al., Mol. Cell, 3:327–33 (1999)) was first adapted. […] The beads and supernatant then were evaluated by Western blot analysis for the presence of MetAP-2. […]
Target sequence in this assay (Q9Y297 whole entry): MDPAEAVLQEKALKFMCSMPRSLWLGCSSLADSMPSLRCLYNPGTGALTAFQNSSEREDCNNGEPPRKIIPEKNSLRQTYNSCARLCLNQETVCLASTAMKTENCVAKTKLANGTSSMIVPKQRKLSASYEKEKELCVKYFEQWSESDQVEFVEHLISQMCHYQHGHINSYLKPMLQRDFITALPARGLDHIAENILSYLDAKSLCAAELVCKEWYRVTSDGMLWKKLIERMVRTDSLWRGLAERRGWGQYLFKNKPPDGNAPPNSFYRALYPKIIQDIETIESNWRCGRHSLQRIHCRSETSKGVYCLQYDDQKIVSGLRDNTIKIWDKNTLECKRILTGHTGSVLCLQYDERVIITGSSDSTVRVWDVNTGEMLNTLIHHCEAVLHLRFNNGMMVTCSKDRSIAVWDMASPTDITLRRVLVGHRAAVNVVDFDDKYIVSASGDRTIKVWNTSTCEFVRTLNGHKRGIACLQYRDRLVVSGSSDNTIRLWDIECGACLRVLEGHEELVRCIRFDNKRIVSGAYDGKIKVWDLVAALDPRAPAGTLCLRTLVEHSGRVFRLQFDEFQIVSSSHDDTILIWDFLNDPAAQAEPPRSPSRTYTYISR
Target sequence in this assay (Q13616 whole entry partner): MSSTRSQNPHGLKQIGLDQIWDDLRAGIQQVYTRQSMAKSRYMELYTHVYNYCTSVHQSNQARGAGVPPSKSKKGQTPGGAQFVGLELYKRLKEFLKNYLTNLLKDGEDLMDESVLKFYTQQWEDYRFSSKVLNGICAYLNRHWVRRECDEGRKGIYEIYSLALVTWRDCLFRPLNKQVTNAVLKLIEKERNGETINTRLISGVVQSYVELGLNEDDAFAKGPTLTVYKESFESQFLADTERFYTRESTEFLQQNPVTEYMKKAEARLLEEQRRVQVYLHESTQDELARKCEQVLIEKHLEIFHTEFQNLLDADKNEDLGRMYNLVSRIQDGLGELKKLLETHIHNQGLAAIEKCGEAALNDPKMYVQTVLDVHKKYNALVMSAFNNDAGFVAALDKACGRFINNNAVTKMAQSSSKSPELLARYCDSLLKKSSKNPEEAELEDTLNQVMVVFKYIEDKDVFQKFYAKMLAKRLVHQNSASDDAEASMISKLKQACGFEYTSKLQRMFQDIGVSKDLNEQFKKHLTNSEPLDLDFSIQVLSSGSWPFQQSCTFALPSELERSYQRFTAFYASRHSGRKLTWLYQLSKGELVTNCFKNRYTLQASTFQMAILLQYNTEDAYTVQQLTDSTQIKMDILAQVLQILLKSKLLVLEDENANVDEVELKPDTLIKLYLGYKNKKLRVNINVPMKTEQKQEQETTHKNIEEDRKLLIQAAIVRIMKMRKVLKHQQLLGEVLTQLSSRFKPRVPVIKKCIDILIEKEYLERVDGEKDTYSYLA
Target sequence in this assay (P63208 2-163 partner limits assumed): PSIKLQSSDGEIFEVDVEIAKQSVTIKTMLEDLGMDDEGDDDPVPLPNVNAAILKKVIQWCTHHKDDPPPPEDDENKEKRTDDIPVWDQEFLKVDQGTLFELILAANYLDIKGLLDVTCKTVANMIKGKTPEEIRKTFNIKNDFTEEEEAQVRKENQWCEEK
Target sequence in this assay (P62877 whole entry partner): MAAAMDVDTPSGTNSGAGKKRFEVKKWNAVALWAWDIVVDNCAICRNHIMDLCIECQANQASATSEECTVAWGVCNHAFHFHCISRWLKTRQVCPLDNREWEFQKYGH
Target sequence in this assay (P50579 whole entry, further chain): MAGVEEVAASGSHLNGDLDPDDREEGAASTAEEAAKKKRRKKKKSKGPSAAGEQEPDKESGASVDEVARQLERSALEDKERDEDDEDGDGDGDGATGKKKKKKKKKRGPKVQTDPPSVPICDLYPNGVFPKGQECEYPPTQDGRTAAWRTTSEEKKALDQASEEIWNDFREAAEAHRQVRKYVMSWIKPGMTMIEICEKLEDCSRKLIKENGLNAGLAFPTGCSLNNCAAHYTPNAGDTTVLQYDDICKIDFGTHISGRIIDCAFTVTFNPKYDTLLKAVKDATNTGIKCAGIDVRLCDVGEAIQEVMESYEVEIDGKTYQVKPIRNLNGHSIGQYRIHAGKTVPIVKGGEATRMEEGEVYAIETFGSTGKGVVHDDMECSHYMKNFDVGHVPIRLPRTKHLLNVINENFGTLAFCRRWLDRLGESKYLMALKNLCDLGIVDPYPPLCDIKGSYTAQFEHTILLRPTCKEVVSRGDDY

MetAP-2 [4] = biological target: T1, MetAP-2; test: MetAP-2-Protac-1 coupling assay (SDS/PAGE, anti-MetAP-2 immunoblot); format: binding; details: MetAP-2 incubated with increasing Protac-1, or free IPP (50 μM) or free OVA (50 μM), room temperature 45 min
Experimental: MetAP-2 (9 μM) was incubated with increasing concentrations of Protac-1 (dissolved in water) at room temperature for 45 min. Reactions were supplemented with SDS loading dye, fractionated on an SDS/10% polyacryl-amide gel, transferred onto a nitrocellulose membrane, and immunoblotted with rabbit polyclonal anti-MetAP-2 antiserum (Zymed). Enhanced chemiluminescence was performed by using Amersham Pharmacia detection reagents.
The IkBalpha-OVA chimera, Protac-1 (FIG. 1B), was synthesized as described above. […] A Western blot analysis was performed with anti-MetAP-2 antiserum. […] The specificity of MetAP-2 interaction with Protac-1 in vitro was also tested.

MetAP-2 [5] = test: In vitro ubiquitination of MetAP-2 by SCFβ-TRCP beads with E1, E2 (Cdc34), ubiquitin, ATP; format: biochemical; details: 1 hr at 30° C.; 47-kDa and 67-kDa MetAP-2 preparations; Western blot
Experimental: Pellets from cells transfected with vector, pFLAG-β-TRCP, or pFLAG-Cul-1 were vortexed for 10 sec, then incubated on ice for 15 min. After centrifugation at 13,000 rpm in an Eppendorf microfuge (Germany) for 5 min at 4° C., the supernatant was added to 20 μl of FLAG M2 beads (Sigma), which were washed with lysis buffer three times before immu-noprecipitation. Lysates were incubated with the beads on a rotator for 2 hr at 4° C., followed by one wash with buffer A (25 mM Hepes buffer, pH 7.4/0.01% Triton X-100/150 mM NaCl) and one wash with buffer B (the same buffer without the Triton X-100). […] After the addition of ligand, the beads were rotated at room temperature for 1 hr. The beads were washed once each with buffers A and B. After centrifugation at 13,000 rpm in an Eppendorf microfuge (Germany) for 1 min, half of the bead and supernatant fractions, representing bound and unbound, respectively, were evaluated by Western blotting as described above. For ubiquitination reactions, 4 μl of 18 μM MetAP-2, 4 μl of 100 μM Protac-1, 0.5 ml of 0.1 μg/μl purified mouse E1, 1 μl of 0.5 μg/μl human Cdc34 E2, and 1 μl of 25 mM ATP were added to 20 μl (packed volume) of washed FLAG-M2 beads. […] SDS/PAGE loading buffer was added to terminate reactions, which were evaluated by Western blotting as described above. […]

SCF^β-TRCP [6] = biological target: T2, SCF^β-TRCP; test: Control ubiquitination of IKK-phosphorylated glutathione S-transferase-IkBalpha by SCFβ-TRCP immunoprecipitates; format: biochemical; design: made in house; host or cells: 293T cells, transient transfection, anti-FLAG immunoprecipitation; details: anti-FLAG SCFβ-TRCP immunoprecipitates; data not shown
From the text: Before testing the activity of Protac-1, an approach to isolate and assay SCF^β-TRCP complexes in vitro as described (See Tan, P., et al., Mol. Cell, 3:327–33 (1999)) was first adapted. Lysates from 293T cells transfected with plasmids that encoded β-TRCP and Cul-1 proteins tagged with the FLAG epitope at the N terminus were immunoprecipitated with anti-FLAG antibody-conjugated resin. Immunoblot analysis confirmed that all components of SCF^β-TRCP were present in the anti-FLAG immunoprecipitate, including Skp 1, Hrt 1, and the transfected FLAG Cul-1 and FLAG β-TRCP (data not shown). Furthermore, control experiments confirmed that these immunoprecipitates promoted ubiquitination of IKK-phosphorylated glutathione S-transferase-LkBalpha in a manner that was inhibited by the IPP and Protac-1 (data not shown; ref. 7). To determine whether Protac-1 could recruit MetAP-2 to SCF^β-TRCP , MetAP-2 (18 μM) was first incubated with Protac-1 (100 μM) for 45 mm at room temperature. After isolation of SCF^β-TRCP complexes, the anti-FLAG beads were supplemented with the MetAP-2-Protac-l mixture and rotated at room temperature for 1 hr. The beads and supernatant then were evaluated by Western blot analysis for the presence of MetAP-2. […]
Target sequence in this assay (Q9Y297 whole entry): as the sequence (Q9Y297 whole entry) above
Target sequence in this assay (Q13616 whole entry partner): as the sequence (Q13616 whole entry partner) above
Target sequence in this assay (P63208 2-163 partner limits assumed): as the sequence (P63208 2-163 partner limits assumed) above
Target sequence in this assay (P62877 whole entry partner): as the sequence (P62877 whole entry partner) above

T1 sequence (P50579 whole entry, species assumed): as the sequence (P50579 whole entry, further chain) above
T1 sequence (P50579 110-478 limits assumed): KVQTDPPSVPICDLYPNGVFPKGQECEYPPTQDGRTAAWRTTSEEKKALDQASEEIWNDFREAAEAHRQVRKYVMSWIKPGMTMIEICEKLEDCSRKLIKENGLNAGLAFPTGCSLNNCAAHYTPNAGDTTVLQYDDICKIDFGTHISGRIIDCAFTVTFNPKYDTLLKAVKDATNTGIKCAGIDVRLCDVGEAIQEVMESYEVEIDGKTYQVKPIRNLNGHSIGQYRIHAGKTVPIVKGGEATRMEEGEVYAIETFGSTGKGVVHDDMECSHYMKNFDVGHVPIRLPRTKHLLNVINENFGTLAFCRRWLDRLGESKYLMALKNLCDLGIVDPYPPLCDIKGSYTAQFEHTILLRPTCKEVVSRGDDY

With `CCCC[C@@H](C=O)NC(=O)[C@H](CC(C)C)NC(=O)[C@H](CC(C)C)NC(C)=O` [LLnL, N-acetyl-leu-leu-norleucinal] (Ac-Leu-Leu-[Nle]-aldehyde) the “effect on degradation of MetAP-2-Protac-1” value (MetAP-2 [1]; LLnL 50 μM final added to extract) was “attenuated”.
With `CC[C@H](C)[C@H](NC(=O)[C@H]([C@@H](C)CC)N(C)C(C)=O)C(=O)N[C@H](C(=O)N[C@@H](CC(C)C)C(=O)[C@@]1(C)CO1)[C@@H](C)O` [epoxomicin] the “effect on degradation of MetAP-2-Protac-1” value (MetAP-2 [1]; epoxomicin 10 μM final added to extract) was “attenuated”.
For `CO[C@@H]1[C@H](OC(=O)/C=C/C=C/C=C/C=C/C(=O)O)CC[C@]2(CO2)[C@H]1[C@@]1(C)O[C@@H]1CC=C(C)C` [fumagillin], the “inhibition of MetAP-2” value (MetAP-2 [2]) is given as “inhibit MetAP-2 by covalently binding His-231 in the active site”.
In the case of “IkBa peptide-suberate-Gly-ovalicinol [Protac-1]”, the “recruitment of MetAP-2 to SCFβ-TRCP beads” value (SCF^β-TRCP [3]) is reported as “specifically recruited MetAP-2 to SCF^β-TRCP”, the “degradation of MetAP-2-Protac-1 complex” value (MetAP-2 [1]; Xenopus egg extract with IKK-EE, OA and OVA, room temperature, MetAP-2 alone not degraded) is reported as “mostly degraded after 30 mm; also recorded: degraded by proteasomes in Xenopus extracts” and the “formation of MetAP-2-Protac-1 complex (upper band / doublet on anti-MetAP-2 Western blot)” value (MetAP-2 [4]) is reported as “specifically conjugated to the OVA moiety of Protac-1 in a concentration-dependent manner”. For the same compound, the “formation of MetAP-2-Protac-1 complex (upper band / doublet on anti-MetAP-2 Western blot)” value (MetAP-2 [4]; listed as Protac) was “MetAP-2 binds Protac specifically and in a concentration-dependent manner”, the “ubiquitination of MetAP-2 by SCFβ-TRCP” value (MetAP-2 [5]) was “specifically elicited ubiquitination of MetAP-2 by SCF^β-TRCP; also recorded: ubiquitinated in the presence of Protac-1” and the “inhibition of ubiquitination of IKK-phosphorylated GST-IkBalpha” value (SCF^β-TRCP [6]) was “inhibited”.

Reference: patent US7208157B2, “Proteolysis targeting chimeric pharmaceutical” (California Institute of Technology, priority 2000, dated 2007)
